Measurements as given in ChEMBL document CHEMBL1201862, “PubChem BioAssay data set” (2004).
The source made the active and inactive calls.

Columns and labels:
[1] = biological target: Large T antigen (Simian virus 40, UniProt P03070); assay type: functional, Betapolyomavirus macacae;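 note: Confirmatory-stage PubChem screen for compounds that inhibit SV40 T antigen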
[2] = biological target: T1, Rac GTPase-activating protein 1 (Homo sapiens, UniProt Q9H0H5); assay: blockers of MgcRacGAP-driven Rac1 GTP hydrolysis – biochemical, ADP Hunter fluorescence, primary and confirmatory, confirmation (AID 624330); assay type: functional
T1 sequence (Q9H0H5 whole entry): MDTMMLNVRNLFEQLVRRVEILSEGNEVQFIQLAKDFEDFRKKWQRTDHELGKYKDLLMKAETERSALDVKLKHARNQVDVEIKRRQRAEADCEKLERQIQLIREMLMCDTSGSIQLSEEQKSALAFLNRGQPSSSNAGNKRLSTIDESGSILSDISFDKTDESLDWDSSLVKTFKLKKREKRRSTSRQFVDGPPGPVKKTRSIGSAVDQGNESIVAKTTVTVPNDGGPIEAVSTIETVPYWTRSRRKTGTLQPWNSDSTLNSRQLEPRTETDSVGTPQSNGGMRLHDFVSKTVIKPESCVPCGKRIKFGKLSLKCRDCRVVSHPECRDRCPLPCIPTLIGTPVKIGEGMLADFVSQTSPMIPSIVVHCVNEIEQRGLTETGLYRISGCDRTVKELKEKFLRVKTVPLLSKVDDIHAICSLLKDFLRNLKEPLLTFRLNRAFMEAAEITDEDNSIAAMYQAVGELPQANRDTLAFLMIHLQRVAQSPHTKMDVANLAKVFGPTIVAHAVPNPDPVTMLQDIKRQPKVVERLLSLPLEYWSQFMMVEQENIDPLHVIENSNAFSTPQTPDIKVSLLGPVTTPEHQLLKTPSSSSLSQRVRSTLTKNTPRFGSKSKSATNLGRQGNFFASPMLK

[3] = biological target: FAD-linked sulfhydryl oxidase ALR (Homo sapiens, UniProt P55789); assay: ALR-catalysed DTT oxidation blockers – biochemical, H2O2 detection, luminescence, cherry-pick, dose response (AID 493248)
Chain of FAD-linked sulfhydryl oxidase ALR (P55789 whole entry): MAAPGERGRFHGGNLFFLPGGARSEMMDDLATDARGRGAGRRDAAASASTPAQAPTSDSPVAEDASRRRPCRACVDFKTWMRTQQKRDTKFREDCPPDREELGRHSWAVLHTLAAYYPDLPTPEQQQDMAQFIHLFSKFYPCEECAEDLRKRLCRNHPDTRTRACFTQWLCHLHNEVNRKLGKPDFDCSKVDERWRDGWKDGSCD

[4] = biological target: T2, Protein RecA (Mycobacterium tuberculosis, UniProt P9WHJ3); assay: Fluorescence Cell-Free Homogeneous Dose Retest to Identify Inhibitors of RecA-Intein Splicing Activity. [Related pubchem assays (depositor defined):AID2097, AID2223, AID489010, AID492950]; assay type: functional
T2 sequence (P9WHJ3 whole entry): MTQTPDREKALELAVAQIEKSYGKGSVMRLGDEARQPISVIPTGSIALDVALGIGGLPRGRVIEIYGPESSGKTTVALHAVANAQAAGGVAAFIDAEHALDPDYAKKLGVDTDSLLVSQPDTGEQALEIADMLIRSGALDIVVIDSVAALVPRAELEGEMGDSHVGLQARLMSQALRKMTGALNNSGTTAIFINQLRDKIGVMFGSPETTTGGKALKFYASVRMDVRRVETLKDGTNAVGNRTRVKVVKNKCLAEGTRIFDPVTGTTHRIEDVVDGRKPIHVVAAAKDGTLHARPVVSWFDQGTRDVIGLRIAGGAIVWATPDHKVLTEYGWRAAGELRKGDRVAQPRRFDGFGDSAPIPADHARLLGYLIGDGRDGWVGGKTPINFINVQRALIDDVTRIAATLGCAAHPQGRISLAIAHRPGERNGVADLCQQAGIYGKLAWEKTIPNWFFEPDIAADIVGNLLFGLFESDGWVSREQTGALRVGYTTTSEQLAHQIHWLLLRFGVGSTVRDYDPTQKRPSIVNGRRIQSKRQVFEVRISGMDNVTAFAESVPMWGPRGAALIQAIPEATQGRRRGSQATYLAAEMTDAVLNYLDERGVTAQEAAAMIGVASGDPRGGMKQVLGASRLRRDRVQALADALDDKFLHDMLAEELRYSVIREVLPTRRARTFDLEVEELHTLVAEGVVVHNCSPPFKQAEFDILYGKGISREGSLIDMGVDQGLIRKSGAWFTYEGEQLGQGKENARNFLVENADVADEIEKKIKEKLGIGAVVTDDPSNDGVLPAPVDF

[5] = biological target: T3, Fatty acid synthase (Homo sapiens, UniProt P49327); assay: inhibition of human FAS-TE enzyme activity – biochemical, kinetic fluorescence intensity, dose response (AID 624326); assay type: functional;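 note: rate of fluorescence rise from hydrolysis of a fluorogenic O-methyl fluorescein ester substrate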
T3 sequence (P49327 whole entry): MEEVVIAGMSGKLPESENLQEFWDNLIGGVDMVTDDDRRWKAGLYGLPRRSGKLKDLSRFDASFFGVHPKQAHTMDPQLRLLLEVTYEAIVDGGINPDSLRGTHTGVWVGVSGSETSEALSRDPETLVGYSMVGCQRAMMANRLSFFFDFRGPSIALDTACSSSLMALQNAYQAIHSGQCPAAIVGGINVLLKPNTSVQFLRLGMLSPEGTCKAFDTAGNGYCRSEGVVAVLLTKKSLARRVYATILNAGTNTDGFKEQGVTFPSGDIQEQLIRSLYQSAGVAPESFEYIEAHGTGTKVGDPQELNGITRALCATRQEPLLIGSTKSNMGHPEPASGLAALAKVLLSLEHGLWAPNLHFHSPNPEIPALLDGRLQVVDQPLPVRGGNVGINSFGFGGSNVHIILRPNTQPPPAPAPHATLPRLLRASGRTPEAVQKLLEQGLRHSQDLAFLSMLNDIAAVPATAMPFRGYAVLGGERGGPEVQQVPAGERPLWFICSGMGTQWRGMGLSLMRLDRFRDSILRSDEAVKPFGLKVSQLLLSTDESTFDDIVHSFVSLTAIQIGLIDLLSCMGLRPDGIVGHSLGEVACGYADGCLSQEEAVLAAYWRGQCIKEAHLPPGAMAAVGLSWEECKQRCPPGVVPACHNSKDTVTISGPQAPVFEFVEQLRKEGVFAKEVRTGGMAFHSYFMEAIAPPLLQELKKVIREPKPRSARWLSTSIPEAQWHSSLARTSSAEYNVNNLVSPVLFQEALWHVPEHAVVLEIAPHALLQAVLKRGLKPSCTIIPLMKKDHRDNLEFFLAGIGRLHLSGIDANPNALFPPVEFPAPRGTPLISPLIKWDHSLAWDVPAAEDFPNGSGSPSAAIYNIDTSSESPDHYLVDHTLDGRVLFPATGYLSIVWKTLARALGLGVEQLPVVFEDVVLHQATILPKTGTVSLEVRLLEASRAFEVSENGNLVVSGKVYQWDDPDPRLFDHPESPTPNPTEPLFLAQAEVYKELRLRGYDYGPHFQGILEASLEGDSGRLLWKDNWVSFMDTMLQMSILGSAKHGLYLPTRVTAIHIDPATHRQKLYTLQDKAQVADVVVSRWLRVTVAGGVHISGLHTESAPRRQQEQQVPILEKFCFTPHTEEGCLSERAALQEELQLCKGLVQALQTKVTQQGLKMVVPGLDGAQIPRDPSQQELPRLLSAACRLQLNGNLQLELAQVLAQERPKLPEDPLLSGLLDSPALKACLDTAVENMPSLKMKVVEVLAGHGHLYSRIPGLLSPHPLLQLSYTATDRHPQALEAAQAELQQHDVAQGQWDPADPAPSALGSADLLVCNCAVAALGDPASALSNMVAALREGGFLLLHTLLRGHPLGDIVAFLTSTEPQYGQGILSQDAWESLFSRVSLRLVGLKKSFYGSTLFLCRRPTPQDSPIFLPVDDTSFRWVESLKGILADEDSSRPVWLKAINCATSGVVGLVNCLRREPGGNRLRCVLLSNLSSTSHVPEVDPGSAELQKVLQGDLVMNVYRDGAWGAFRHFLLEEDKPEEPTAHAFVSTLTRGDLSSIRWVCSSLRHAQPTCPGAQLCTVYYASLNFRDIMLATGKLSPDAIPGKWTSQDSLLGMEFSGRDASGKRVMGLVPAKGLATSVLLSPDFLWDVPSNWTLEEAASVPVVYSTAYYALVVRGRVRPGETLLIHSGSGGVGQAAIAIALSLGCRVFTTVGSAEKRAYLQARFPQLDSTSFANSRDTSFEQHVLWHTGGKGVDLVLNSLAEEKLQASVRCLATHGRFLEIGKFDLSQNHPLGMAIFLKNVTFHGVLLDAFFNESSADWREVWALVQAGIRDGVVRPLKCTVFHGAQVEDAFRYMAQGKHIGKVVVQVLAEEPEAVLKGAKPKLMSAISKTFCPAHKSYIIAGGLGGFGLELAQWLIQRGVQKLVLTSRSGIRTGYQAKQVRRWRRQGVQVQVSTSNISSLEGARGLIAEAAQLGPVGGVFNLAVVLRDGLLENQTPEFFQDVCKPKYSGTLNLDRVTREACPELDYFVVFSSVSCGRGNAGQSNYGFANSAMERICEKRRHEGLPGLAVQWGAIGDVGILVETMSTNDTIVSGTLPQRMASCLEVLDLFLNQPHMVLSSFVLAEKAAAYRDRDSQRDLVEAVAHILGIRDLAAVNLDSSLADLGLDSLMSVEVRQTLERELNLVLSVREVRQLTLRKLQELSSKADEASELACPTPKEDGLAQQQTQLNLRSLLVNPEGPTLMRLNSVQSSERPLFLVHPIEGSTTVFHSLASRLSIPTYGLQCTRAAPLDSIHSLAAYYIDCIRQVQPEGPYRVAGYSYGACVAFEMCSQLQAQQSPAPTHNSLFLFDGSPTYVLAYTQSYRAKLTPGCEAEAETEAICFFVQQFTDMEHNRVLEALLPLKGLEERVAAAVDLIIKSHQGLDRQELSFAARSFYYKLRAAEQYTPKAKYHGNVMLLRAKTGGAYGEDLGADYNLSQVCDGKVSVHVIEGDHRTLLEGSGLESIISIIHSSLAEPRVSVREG

[6] = biological target: T3, Fatty acid synthase; assay: inhibition of human FAS-TE enzyme activity – biochemical, endpoint fluorescence intensity, uHTS hits, dose response (AID 624327); assay type: functional;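 note: fluorescence from hydrolysis of an O-methyl fluorescein acyl ester substrate by the enzyme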
[7] = biological target: T4, Replicative DNA helicase DnaB (Mycobacterium tuberculosis, UniProt P9WMR3); assay: DnaB intein splicing inhibitors, dose response, biochemical, cell-free fluorescence (AID 449749); assay type: functional
T4 sequence (P9WMR3 whole entry): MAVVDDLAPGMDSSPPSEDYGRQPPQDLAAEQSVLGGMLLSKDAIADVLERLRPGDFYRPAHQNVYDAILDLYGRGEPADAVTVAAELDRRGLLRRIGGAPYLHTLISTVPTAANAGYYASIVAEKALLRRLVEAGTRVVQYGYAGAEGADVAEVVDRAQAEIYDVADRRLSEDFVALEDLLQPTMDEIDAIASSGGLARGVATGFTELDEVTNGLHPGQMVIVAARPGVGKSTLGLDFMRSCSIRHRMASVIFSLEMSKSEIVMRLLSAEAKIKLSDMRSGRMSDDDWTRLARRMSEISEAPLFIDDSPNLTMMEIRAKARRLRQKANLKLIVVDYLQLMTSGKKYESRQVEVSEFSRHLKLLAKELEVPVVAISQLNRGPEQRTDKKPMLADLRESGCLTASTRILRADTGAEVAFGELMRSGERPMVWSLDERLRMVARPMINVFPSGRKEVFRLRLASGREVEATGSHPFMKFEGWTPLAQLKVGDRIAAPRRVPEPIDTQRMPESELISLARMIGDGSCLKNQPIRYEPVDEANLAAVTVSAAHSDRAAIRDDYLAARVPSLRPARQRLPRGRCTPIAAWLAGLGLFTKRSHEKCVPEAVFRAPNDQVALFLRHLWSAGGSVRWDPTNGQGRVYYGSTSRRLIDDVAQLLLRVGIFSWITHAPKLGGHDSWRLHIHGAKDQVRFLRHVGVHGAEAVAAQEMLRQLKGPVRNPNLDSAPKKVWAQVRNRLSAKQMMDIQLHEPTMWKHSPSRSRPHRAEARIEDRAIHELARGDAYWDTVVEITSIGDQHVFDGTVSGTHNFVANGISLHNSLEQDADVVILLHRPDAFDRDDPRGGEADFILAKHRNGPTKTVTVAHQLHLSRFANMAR

[8] = cells; assay type: functional
[9] = HIV-1 AD8 envelope cell-cell fusion blockers – cherry-pick, dose response (AID 652062); assay type: functional, cell-based;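 note: luciferase signal from cell-cell fusion driven by HIV-1 clade B AD8 Env; potency is for inhibitors of fusion seen as a drop in luminescence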
[10] = off-target signal loss in HeLa-CEM21 co-culture – HeLa F-luc CTL cells, cherry-picked, counter-screen for HIV-1 Env fusion inhibitor project, dose response (AID 652040); assay type: functional, cell-based;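 note: potency for signal decrease marking cytotoxic or nonspecific inhibition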
[11] = blockers of HIV-1 ZM109 envelope-driven cell-cell fusion – HeLa effector, CEM target cells, luciferase, cherry-pick, dose response (AID 652058); assay type: functional, cell-based;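 note: luciferase signal from HIV-1 Env mediated cell-cell fusion of effector and target cells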
[12] = blockers of HIV-1 envelope-mediated cell-cell fusion – cherry-pick, dose response (AID 652057); assay type: functional, cell-based
[13] = biological target: T5, Histone-lysine N-methyltransferase NSD2 (Homo sapiens, UniProt O96028); assay type: biochemical
T5 sequence (O96028 whole entry): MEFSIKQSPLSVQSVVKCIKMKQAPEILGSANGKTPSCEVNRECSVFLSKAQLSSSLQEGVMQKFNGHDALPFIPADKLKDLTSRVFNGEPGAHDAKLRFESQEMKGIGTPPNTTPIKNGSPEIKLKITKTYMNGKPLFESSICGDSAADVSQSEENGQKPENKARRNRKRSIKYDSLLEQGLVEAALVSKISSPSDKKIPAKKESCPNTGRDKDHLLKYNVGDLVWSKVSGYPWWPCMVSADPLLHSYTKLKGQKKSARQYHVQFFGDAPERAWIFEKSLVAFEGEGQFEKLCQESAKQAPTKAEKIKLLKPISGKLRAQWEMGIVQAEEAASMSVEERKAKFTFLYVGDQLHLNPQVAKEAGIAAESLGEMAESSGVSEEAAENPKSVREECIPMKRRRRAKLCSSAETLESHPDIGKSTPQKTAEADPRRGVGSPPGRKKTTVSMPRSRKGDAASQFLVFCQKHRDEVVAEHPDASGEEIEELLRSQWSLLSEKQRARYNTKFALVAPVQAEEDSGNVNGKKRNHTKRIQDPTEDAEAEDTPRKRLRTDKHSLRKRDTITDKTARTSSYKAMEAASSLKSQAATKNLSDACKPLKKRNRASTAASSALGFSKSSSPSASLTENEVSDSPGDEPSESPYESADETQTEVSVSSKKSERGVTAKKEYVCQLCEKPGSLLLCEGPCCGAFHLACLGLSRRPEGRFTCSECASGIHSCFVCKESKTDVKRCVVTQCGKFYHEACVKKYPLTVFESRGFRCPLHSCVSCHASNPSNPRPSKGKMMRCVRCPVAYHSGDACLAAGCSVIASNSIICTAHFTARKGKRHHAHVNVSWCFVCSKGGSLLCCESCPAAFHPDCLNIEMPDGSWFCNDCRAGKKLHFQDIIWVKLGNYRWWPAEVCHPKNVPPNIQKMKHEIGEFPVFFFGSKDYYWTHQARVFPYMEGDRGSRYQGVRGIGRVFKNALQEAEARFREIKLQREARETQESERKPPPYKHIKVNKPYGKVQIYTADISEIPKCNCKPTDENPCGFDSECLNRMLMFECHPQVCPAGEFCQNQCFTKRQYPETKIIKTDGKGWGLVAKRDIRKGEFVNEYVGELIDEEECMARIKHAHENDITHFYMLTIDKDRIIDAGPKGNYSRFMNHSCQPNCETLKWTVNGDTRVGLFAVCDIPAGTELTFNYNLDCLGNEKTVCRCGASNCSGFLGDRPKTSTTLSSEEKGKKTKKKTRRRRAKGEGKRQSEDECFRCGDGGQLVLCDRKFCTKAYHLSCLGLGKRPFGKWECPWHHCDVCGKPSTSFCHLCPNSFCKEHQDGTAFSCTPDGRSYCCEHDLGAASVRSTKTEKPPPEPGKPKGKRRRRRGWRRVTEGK

[14] = reduction of Shn3 3'UTR-driven luciferase in osteoblasts – cell-based, Clone20 osteoblasts, firefly luciferase, cherry-picked, dose response (AID 624132); assay type: functional;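 note: firefly luciferase luminescence from reporter carrying the Shn3 3'UTR in osteoblasts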
[15] = tested on: H4; assay: Luminescence Cell-Based Dose Response HTS to Identify Activators of 5'UTR Stem-Loop Driven Prion Protein mRNA Translation in H4 Neuroglioblastoma Cells. [Related pubchem assays: 1829 (Project Summary), 1814 (Primary HTS)]; assay type: functional; conditions: Homo sapiens
[16] = Luminescence Cell-Based Dose Confirmation HTS to Identify Activators of 5'UTR Stem-Loop Driven Alpha-Synuclein mRNA Translation in H4 Neuroglioblastoma Cells. [Related pubchem assays: 1829 (Project Summary), 1814 (Primary HTS)]; assay type: functional
[17] = Luminescence Cell-Based Dose Response HTS to Identify Activators of Luciferase Translation or Activity in H4 […] Cells. [Related pubchem assays: 1829 (Project Summary), 1814 (Primary HTS)]; assay type: functional

Chain of Large T antigen (P03070 whole entry): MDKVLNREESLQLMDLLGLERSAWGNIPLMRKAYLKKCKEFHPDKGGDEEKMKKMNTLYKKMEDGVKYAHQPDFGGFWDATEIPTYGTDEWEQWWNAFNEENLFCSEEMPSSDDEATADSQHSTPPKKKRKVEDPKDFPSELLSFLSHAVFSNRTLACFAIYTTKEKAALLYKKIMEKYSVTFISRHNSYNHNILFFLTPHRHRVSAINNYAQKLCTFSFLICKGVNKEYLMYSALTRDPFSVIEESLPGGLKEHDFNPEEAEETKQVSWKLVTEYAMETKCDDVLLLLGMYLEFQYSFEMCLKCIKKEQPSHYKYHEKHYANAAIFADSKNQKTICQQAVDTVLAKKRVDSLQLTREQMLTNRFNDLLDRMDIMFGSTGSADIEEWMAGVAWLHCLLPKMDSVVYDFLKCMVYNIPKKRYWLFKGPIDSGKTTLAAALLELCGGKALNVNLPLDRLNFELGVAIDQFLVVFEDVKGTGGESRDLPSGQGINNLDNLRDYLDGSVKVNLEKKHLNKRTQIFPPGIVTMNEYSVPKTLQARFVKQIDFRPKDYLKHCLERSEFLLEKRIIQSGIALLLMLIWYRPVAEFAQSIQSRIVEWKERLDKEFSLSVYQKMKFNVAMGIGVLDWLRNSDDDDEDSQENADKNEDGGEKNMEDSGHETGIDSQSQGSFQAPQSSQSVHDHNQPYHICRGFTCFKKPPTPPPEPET

## COc1cc(/C=N/n2nnnc2N)ccc1O
[1]
  IC50: 4.83 µM (active)
[2]
  IC50: 16.9 µM (active)
[3]
  AC50: 1.2 µM (active)

## CCN1Cc2c(/C=C/c3ccccc3)nc3ccc(OC)cc3c2N(c2cccc(Cl)c2)C1
[4]
  EC50: 17.6 µM (active)
[5]
  IC50: 3.61 µM (active)
[6]
  IC50: 2.35 µM (active)
[7]
  AC50: > 380 µM (inactive)

## CC(NC(=O)c1cc([N+](=O)[O-])cc([N+](=O)[O-])c1)c1ccc(-n2ccnc2)cc1 (centres undefined)
[8]
  IC50: 1.43 µM (active)
[5]
  IC50: 6.68 µM (active)
[6]
  IC50: 10.1 µM (active)

## O=C(N(Cc1ccccc1)c1ccccn1)C12CC3CC(CC(C3)C1)C2
[9]
  AC50: 6.03 µM (active)
[10]
  AC50: 2.99 µM (active)
[11]
  AC50: 2.19 µM (active)
[12]
  AC50: 1.62 µM (active)

## COc1ccc(S(=O)(=O)Nc2ccc3c(c2)CC(=O)N([C@@H](C)CO)C[C@H](C)[C@H](CN(C)S(=O)(=O)c2ccc(F)cc2)O3)cc1
[9]
  AC50: 18.6 µM (active)
[11]
  AC50: 11.4 µM (active)
[12]
  AC50: 10 µM (active)

## Cc1cc(Oc2ccc(C#N)cc2)nc(NCc2ccccc2)n1
[9]
  AC50: 9.81 µM (active)
[10]
  AC50: > 70 µM (inactive)
[11]
  AC50: 5.62 µM (active)

## COc1ccc(/N=C/c2c(O)cc(C)oc2=O)cc1
[1]
  IC50: 7.84 µM (active)
[2]
  IC50: 85.2 µM (active)

## Cc1oc(-c2ccccc2F)nc1CN1CCC(C(=O)NCCC2=CCCCC2)CC1
[9]
  AC50: 1.28 µM (active)
[11]
  AC50: 4.91 µM (active)
[12]
  AC50: 5.29 µM (active)

## CCN(CC)CCSc1nc2ccccc2c(=S)n1-c1ccccc1
[13]
  AC50: > 20 µM (inactive)

## CCOc1ccc2nc(SC3CC(=O)N(c4ccc(C)cc4)C3=O)sc2c1 (centres undefined)
[14]
  AC50: 15.6 µM (active)

## CNCc1ccccc1OCc1ccc(F)cc1
[13]
  AC50: > 20 µM (inactive)

## O=C(c1ccco1)N1CCCC(Nc2ccc3c(c2)OCCO3)C1 (centres undefined)
[1]
  IC50: 29.3 µM (active)
[15]
  EC50: 37.7 µM (active)
[16]
  EC50: 8.81 µM (active)
[17]
  EC50: 9.98 µM (active)

## CCc1ccc(C2CC(=O)N3CN(c4ccccc4)CSC3=C2C#N)cc1 (centres undefined)
[1]
  IC50: 70.1 µM (active)

## CNCc1ccc(OCc2ccccc2)c(OC)c1
[13]
  AC50: > 20 µM (inactive)

## Cc1cc([N+](=O)[O-])cc2c1NC(=O)C2(O)N1CCOCC1 (centres undefined)
[13]
  AC50: 15.7 µM (active)

## COc1ccc([C@H]2/C=C\CN(C(=O)C3CC3)[C@@H](C)C(=O)N2Cc2ccc(F)cc2)cc1
[9]
  AC50: 4.99 µM (active)
[10]
  AC50: 7.85 µM (active)
[11]
  AC50: 0.488 µM (active)
[12]
  AC50: 4.42 µM (active)
